In this assay the test system is TGFβ signal. As to the kind of experiment: TGFβ signal inhibitory activity, (SBE)4-Luc reporter in A549 cells (Test Examples 1A and 1B). The format is cell-based, human. Conditions: Homo sapiens, A549, read-out: TGFβ inhibition rate, %; for inhibition at 1 µM: test compound 1 µM. In short, it runs like this:
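Compounds at 3 µM and 10 µM (some 1 µM) were added with 2 ng/ml TGFβ-1 to A549 cells stably expressing an SBE-driven luciferase, then cultured 4 hr. Chemiluminescent luciferase signal gave % inhibition versus TGFβ-alone and no-TGFβ controls.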

[1] abbreviates: test compound 3 µM, TGFβ-1 2 ng/ml, 4 hr, Table 1A.
Setting [2] is: test compound 10 µM, TGFβ-1 2 ng/ml, 4 hr, Table 1A.
Setting [3] is: 3 µM, compounds of Reference Examples (Test Example 1B).
Where [4] appears, read: 10 µM, compounds of Reference Examples (Test Example 1B).
[5] abbreviates: test compound 3 µM, Reference Examples, Table 1B.
Where [6] appears, read: test compound 10 µM, Reference Examples, Table 1B.

Results on 44 compounds are retold here after EP1724268A1, “COMPOUND HAVING TGF-BETA INHIBITORY ACTIVITY AND PHARMACEUTICAL COMPOSITION CONTAINING SAME” (KIRIN BEER KABUSHIKI KAISHA, priority 2004, dated 2005).

SMILES strings stand for the structures. Where two headings read alike, the source gives them in different places.

The inhibition is the relative decrease from the control value, in per cent. With `COc1cc2nccc(Oc3cc(C)c(C)nc3-c3ccccn3)c2cc1NCCO` [Compound 154, 2-[4-(5,6-Dimethyl-[2,2']bipyridinyl-3-yloxy)-7-methoxy-quinolin-6-ylamino]-ethanol], the inhibition at 3 µM under setting [1] was found to be 99%. Further, under setting [2], the inhibition at 10 µM came to 100%.
As to `COc1cc2nccc(Oc3cc4cc(F)ccc4nc3-c3ccccc3)c2cc1OC` [r292], under setting [3], the inhibition at 3 µM is 86%. Also, the inhibition at 10 µM under setting [4] is 100%.
For `COc1cccc(-c2nc(C)ccc2Oc2ccnc3cc(OC)c(OC)cc23)c1` [Compound r238], in that order: 92% and 100%.
For the compound `CCC(=O)c1cc(OC(F)(F)F)ccc1Oc1ccnc2cc(OC)c(OC)cc12` [Compound r51], the inhibition at 3 µM under setting [5] turned out to be 71%. Moreover, the inhibition at 10 µM under setting [6] amounted to 99%.
On to `CCc1ccc(Oc2ccnc3ccc(OCCOC(=O)C(C)(C)CC)cc23)c(-c2ncccn2)n1` [Compound 224, 2-[4-(6-Ethyl-2-pyrimidin-2-yl-pyridin-3-yloxy)-quinolin-6-yloxy]-ethyl 2,2-dimethyl-butanoate], for which, under setting [1], the inhibition at 3 µM worked out at 95%. Besides, the inhibition at 10 µM under setting [2] came to 100%.
Regarding `COc1cc2nccc(Oc3ccc(C)nc3-c3cnn(C)c3)c2cc1OC` [r438], the inhibition at 3 µM under setting [3] is 99%. The inhibition at 10 µM under setting [4] amounted to 100%.
On to `COc1cc2c(Oc3ccc(C)cc3C(=O)c3ccccc3)ccnc2cc1OCCCn1ccnc1` [r140], for which the inhibition at 3 µM under setting [5] turned out to be 85%. Also, the inhibition at 10 µM under setting [6] turned out to be 100%.
For `COc1cc2nccc(Oc3ccc4ccccc4c3C(C)=O)c2cc1OC` [r42], in that order: 90% and 93%.
`COc1cc2c(Oc3cc(C)c(C)nc3-c3ccccc3)ccnc2cc1OCC1CO1` (centres unmarked) [Compound r334]: the inhibition at 3 µM under setting [3] is 99%.
On to `Cc1ccc(Oc2ccnc3ccc(OCCCN4CCCCC4)cc23)c(-c2ncccn2)n1` [Compound 212, 4-(6-Methyl-2-pyrimidin-2-yl-pyridin-3-yloxy)-6-(3-piperidin-1- ? -propoxy)-quinoline], for which the inhibition at 3 µM under setting [1] is 55%.
Regarding `Cc1cc(Oc2ncnc3ccsc23)c(-c2ccccn2)nc1C` [Compound 33, 5,6-Dimethyl-3-(thieno[3,2-d]pyrimidin-4-yloxy)-[2,2']bipyridine], under setting [1], the inhibition at 3 µM was 86%. Besides, the inhibition at 10 µM under setting [2] amounted to 99%.
With `COc1cc2c(Oc3cc(C)c(C)nc3-c3cccc(C)n3)ccnc2cc1OCCNCCO` [Compound r468], the inhibition at 3 µM under setting [3] turned out to be 99%.
Turning to `COc1cc2nccc(Oc3cc4cccnc4nc3-c3ccccc3)c2cc1OCc1ccccc1` [Compound 123, 3-(6-Benzyloxy-7-methoxy-quinolin-4-yloxy)-2-phenyl-[1,8]naphthyridine], under setting [1], the inhibition at 3 µM is 99%. Further, the inhibition at 10 µM under setting [2] is 100%.
For `COc1cc2nccc(Oc3cc4ccccc4nc3-c3ccccn3)c2cc1OC` [r287], the inhibition at 3 µM under setting [3] worked out at 100%. Moreover, the inhibition at 10 µM under setting [4] was found to be 100%.
`COc1cc2c(Oc3cc(C)c(C)nc3-c3ccccn3)ccnc2cc1OCC(O)CO` (centres unmarked) [Compound r342]: under setting [3], the inhibition at 3 µM is 89%.
`COc1cc2c(Oc3cc4ccccc4nc3C)ccnc2cc1OCCn1ccnc1` [Compound r368]: the inhibition at 3 µM under setting [3] turned out to be 100%. Also, the inhibition at 10 µM under setting [4] is 100%.
In the case of `Cc1cc(Oc2ccnc3cc(-c4cccc(O)c4)ccc23)c(-c2ccccn2)nc1C` [Compound 106, 3-[4-(5,6-Dimethyl-[2,2']bipyridinyl-3-yloxy)-quinolin-7-yl]-phenol], the inhibition at 3 µM under setting [1] is 99%. The inhibition at 10 µM under setting [2] amounted to 100%.
For the compound `COc1cc2nccc(Oc3ccccc3C(C)=O)c2cc1OC` [Compound r29], the inhibition at 3 µM under setting [5] worked out at 0%. For the same compound, the inhibition at 10 µM under setting [6] was 67%.
Take `COc1cc2nccc(Oc3cc(C)c(C)nc3-c3ccccn3)c2cc1O` [Compound 141, 4-(5,6-Dimethyl-[2,2']bipyridinyl-3-yloxy)-7-methoxy-quinolin-6-ol]: under setting [1], the inhibition at 3 µM is 100%. Under setting [2], the inhibition at 10 µM was 100%.
As to `CCCCOC(=O)c1ccccc1Oc1ccnc2cc(OC)c(OC)cc12` [Compound r98], the inhibition at 3 µM under setting [5] is 4%. The inhibition at 10 µM under setting [6] was found to be 93%.
For `CCCOC(=O)c1cc(C(C)=O)ccc1Oc1ccnc2cc(OC)c(OC)cc12` [Compound r95], in that order: 67% and 96%.
`Cc1cc(Oc2ccnc3cc(-c4cccnc4)ccc23)c(-c2ccccn2)nc1C` [Compound 18, 5,6-Dimethyl-3-(7-pyridin-3-yl-quinolin-4-yloxy)-[2,2']bipyridine]: the inhibition at 3 µM under setting [1] was determined as 95%. Also, the inhibition at 10 µM under setting [2] is 100%.
Take `COc1cc2nccc(Oc3cc4ccccc4nc3C)c2cc1OCc1ccccc1` [Compound r415, 6-Benzyloxy-7-methoxy-4-(2-methyl-quinolin-3-yloxy)-quinoline]: the inhibition at 3 µM under setting [3] was 77%. Further, under setting [4], the inhibition at 10 µM worked out at 100%.
Consider `COc1ccc2c(Oc3cc4cccnc4nc3-c3ccccc3)ccnc2c1` [Compound 56, 3-(7-Methoxy-quinolin-4-yloxy)-2-phenyl-[1,8]naphthyridine], for which, under setting [1], the inhibition at 3 µM was 99%. In addition, the inhibition at 10 µM under setting [2] worked out at 100%.
Consider `COc1cc2nccc(Oc3ccc(C)nc3-c3ccccc3C(C)=O)c2cc1OC` [Compound r225], for which, under setting [3], the inhibition at 3 µM was determined as 39%. In addition, under setting [4], the inhibition at 10 µM amounted to 78%.
For `COc1cc2nccc(Oc3cc4ccncc4cc3Br)c2cc1OC` [Compound r301, 4-(7-Bromo-isoquinolin-6-yloxy)-6,7-dimethoxy-quinoline], in that order: 20% and 75%.
For the compound `COc1cc2c(Oc3cc(C)c(C)nc3-c3ccccn3)ccnc2cc1OCCO` [Compound r339], the inhibition at 3 µM under setting [3] was determined as 100%.
Turning to `COc1cc2nccc(Oc3cc4ccccc4nc3C(=O)c3ccccc3)c2cc1OC` [r279], under setting [3], the inhibition at 3 µM was 98%. The inhibition at 10 µM under setting [4] was 100%.
Consider `Fc1ccc2nccc(Oc3cc4cccnc4nc3-c3ccccc3)c2c1` [Compound 53, 3-(6-Fluoro-quinolin-4-yloxy)-2-phenyl-[1,8]naphthyridine], for which the inhibition at 1 µM (TGFβ-1 2 ng/ml, 4 hr, Table 1A) turned out to be 43%. In addition, the inhibition at 3 µM under setting [1] came out at 83%.
With `COc1cc2c(Oc3cc4ccccc4nc3C)ccnc2cc1-c1ccncc1` [r414], under setting [3], the inhibition at 3 µM was found to be 82%. In addition, under setting [4], the inhibition at 10 µM stood at 100%.
For `COc1cc2nccc(Oc3ccc(C)nc3-c3cccc(CO)c3)c2cc1OC` [Compound r231], in that order: 100% and 100%.
The corresponding values for `COc1cc2nccc(Oc3cccnc3OC3CCCC3)c2cc1OC` [Compound r204, 4-(2-Cyclopentyloxy-pyridin-3-yloxy)-6,7-dimethoxy-quinoline] are 14% and 77%.
Take `COc1cc2nccc(Oc3ccc(C)nc3)c2cc1OC` [Compound r115, 4-[(6-Methyl-3-pyridyl)oxy]-6,7-dimethoxyquinoline]: under setting [5], the inhibition at 3 µM turned out to be 74%. Moreover, under setting [6], the inhibition at 10 µM turned out to be 97%.
The corresponding values for `CCOC(=O)c1cc(-n2cccc2)ccc1Oc1ccnc2cc(OC)c(OC)cc12` [Compound r90] are 54% and 95%.
As for `COc1cc2nccc(Oc3cc4cccnc4nc3-c3ccccc3)c2cc1C(N)=O` [Compound 66, 7-Methoxy-4-(2-phenyl-[1,8]naphthyridin-3-yloxy)-quinoline-6-carboxylic acid amide], where the note is “TGFβ-1 2 ng/ml, 4 hr, Table 1A”, the inhibition at 1 µM worked out at 97%. The inhibition at 3 µM under setting [1] is 100%.
As for `Cc1cc(Oc2ccnc3ccc(Cl)cc23)c(-c2ccccn2)nc1C` [Compound 156, 3-(6-Chloro-quinolin-4-yloxy)-5,6-dimethyl-[2,2']bipyridine], the inhibition at 3 µM under setting [1] came out at 100%. Besides, the inhibition at 10 µM under setting [2] worked out at 100%.
Regarding `COc1cc2c(Oc3cc4cccnc4nc3-c3ccccc3)ccnc2cc1C` [Compound 62, 3-(6-Methoxy-7-methyl-quinolin-4-yloxy)-2-phenyl-[1,8]naphthyridine], the inhibition at 3 µM under setting [1] came out at 99%. For the same compound, the inhibition at 10 µM under setting [2] was found to be 100%.
Regarding `COc1cc2nccc(Oc3ccc(C)cc3C(=O)c3ccno3)c2cc1OC` [Compound r61], under setting [5], the inhibition at 3 µM came out at 61%. Moreover, the inhibition at 10 µM under setting [6] was 98%.
`COc1cc2nccc(Oc3cc4cccnc4cc3OC)c2cc1OC` [Compound r297, 6,7-Dimethoxy-4-(7-methoxy-quinolin-6-yloxy)-quinoline]: under setting [3], the inhibition at 3 µM was 61%. Besides, the inhibition at 10 µM under setting [4] came out at 94%.
Regarding `CCC(=O)c1cc(I)ccc1Oc1ccnc2cc(OC)c(OC)cc12` [Compound r47], the inhibition at 3 µM under setting [5] is 45%. The inhibition at 10 µM under setting [6] was 98%.
On to `COC(=O)CCCCCCC(=O)c1cc(C)ccc1Oc1ccnc2cc(OC)c(OC)cc12` [r187], for which the inhibition at 3 µM under setting [3] was 35%. Under setting [4], the inhibition at 10 µM was found to be 91%.
The corresponding values for `COc1cc2nccc(Oc3ccc(C)nc3-c3ccc(F)cc3)c2cc1OC` [Compound r251] are 84% and 100%.
The corresponding values for `COc1cc2nccc(Oc3cc4ccccc4nc3CCC(C)C)c2cc1OC` [r439] are 43% and 95%.
As for `COc1cc2nccc(Oc3ccc4ncccc4c3)c2cc1OC` [r24], the inhibition at 3 µM under setting [5] amounted to 66%. Further, the inhibition at 10 µM under setting [6] was found to be 91%.
